Counter-ions that a name gives are not always drawn.

The target in the assay is T1, H^+/K^+-ATPase (Sus scrofa, UniProt P19156).
T1 construct: used as an enzyme source of the in vitro enzyme reaction assay of proton pump; from tissue; host or cells: hog gastric fundic mucosa (membrane vesicles, lyophilized)
T1 sequence (P19156 2-1034 limits assumed): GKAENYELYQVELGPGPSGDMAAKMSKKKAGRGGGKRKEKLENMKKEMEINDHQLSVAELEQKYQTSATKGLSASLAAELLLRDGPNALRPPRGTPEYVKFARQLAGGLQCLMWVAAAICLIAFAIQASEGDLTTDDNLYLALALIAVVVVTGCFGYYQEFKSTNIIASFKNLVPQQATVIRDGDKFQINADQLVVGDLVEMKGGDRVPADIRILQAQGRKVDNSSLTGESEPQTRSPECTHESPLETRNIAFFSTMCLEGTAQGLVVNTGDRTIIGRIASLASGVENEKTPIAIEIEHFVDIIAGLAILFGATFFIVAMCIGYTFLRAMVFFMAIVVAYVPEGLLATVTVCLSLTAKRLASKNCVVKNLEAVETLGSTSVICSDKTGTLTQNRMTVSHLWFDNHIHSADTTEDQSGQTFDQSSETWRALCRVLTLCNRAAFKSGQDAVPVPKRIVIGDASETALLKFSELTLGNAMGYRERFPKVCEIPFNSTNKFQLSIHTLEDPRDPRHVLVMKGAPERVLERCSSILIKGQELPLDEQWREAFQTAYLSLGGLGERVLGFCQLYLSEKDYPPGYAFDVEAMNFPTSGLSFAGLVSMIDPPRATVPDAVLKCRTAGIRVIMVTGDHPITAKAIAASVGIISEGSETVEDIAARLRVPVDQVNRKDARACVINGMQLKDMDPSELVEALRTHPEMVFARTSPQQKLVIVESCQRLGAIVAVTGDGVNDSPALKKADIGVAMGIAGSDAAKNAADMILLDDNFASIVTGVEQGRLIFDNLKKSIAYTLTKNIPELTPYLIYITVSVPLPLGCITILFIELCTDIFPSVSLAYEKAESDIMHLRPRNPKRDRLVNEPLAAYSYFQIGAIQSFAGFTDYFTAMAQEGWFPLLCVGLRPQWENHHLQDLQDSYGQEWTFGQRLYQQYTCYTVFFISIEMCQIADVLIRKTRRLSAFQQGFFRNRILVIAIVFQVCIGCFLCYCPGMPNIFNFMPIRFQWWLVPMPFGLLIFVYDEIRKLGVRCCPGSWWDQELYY
T1 sequence (P18434 whole entry partner): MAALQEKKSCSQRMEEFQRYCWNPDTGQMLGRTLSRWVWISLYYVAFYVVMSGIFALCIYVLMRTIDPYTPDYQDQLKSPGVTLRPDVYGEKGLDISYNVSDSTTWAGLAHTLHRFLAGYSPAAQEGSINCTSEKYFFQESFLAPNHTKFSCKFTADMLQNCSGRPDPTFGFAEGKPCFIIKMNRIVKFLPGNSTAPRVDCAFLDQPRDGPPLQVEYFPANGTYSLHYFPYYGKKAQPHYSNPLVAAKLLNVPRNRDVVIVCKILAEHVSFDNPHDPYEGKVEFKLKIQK
In words: Inhibitory effects on proton pump (H^+/K^+-ATPase) activity, hog gastric vesicles. The class given is biochemical. Conditions: K^+ stimulated H^+/K^+-ATPase activity, hog gastric vesicle, Pi measured at 620 nm. The method, then: Preparation of Gastric Proton Pump Vesicles
The hog fundic regions containing parietal and peptic cells were scraped with slide-glass. The collected cells were suspended in 10 ml of 0.25M sucrose buffer and homogenized using a tight-fitting Teflon-glass homogenizer. The homogenate was centrifuged for 35 min at 8,000 rpm and the pellet was discarded. The supernatant was further centrifuged for 75 min at 25,000 rpm. The resulting pellets were re-suspended in the sucrose buffer (10 ml), and then the suspension was laid onto discontinuous density gradients consisting of 0.25M sucrose buffer and isolation medium containing 9% Ficoll (w/w). After being centrifuged for 3 hours and 15 minutes at 100,000×g, the material at the interface of sucrose buffer and Ficoll solution was collected and then centrifuged for 40 minutes at 100,000×g. The resulting pellets were re-suspended in 1 ml of 5 mM Hepes/Tris buffer (pH 6.1). This material was lyophilized and stored at −70° C. and used as an enzyme source of the in vitro enzyme reaction assay of proton pump.
1-2. Measurement of Inhibitory Effects on Proton Pump (H+/K+-ATPase) activity
The inhibitory effects of the compounds of the present invention against proton pump activity were evaluated in 96-well plate. In this assay, the K^+ specific H^+/K^+-ATPase activity was calculated based on the difference between the activity of H^+/K^+-ATPase activity with K^+ and without K^+ ion. In 96-well plate, 1% dimethylsulfoxide (DMSO) in buffer was added to negative and positive control groups and the diluted compounds of the present invention in buffer were added to test group. All assays were performed in 100 μl reaction volume at room temperature, and the hog gastric vesicle was kept in ice before use. At the beginning of the reaction, 10 μl of reaction buffer containing 1% DMSO was added to the negative and positive control groups and to each concentration of compounds in the test group. Then lyophilized vesicle in 5 mM Pipes/Tris buffer (pH 6.1) was pre-incubated in the presence of various concentrations of test compounds. After a 5 minute incubation, negative and positive buffers were respectively added to the previous reaction mixture. As the substrate, ATP was added to the reaction buffer, and incubated for 30 minutes at 37° C. Enzymatic activity was stopped by the addition of colorimetric reagent (2× malachite green, 1× ammonium molybdate, 1× polyvinyl alcohol, 2× H2O) and the amount of mono phosphate (Pi) in the reaction was measured at 620 nm using the micro plate reader (Genios Pro, TECAN). The difference between the Pi production with K^+ and without K^+ is taken as K^+ stimulated H^+/K^+-ATPase activity.
As a reminder, the IC50 is the concentration that inhibits the measured activity by half. A higher IC50 goes with weaker potency in that assay. On to `CCn1c(C)c(C)c2nccc(OCc3ccc(Cl)cc3)c21` [Example 90, 7-(4-chlorobenzyloxy)-1-ethyl-2,3-dimethyl-1H-pyrrolo[3,2-b]pyridine hydrochloride], for which the IC50 was 140 nM.
As for `CCCn1c(C)c(C)c2nccc(OCc3ccc(Br)cc3)c21` [Example 229, 7-(4-bromobenzyloxy)-2,3-dimethyl-1-propyl-1H-pyrrolo[3,2-b]pyridine hydrochloride], the figure is 70 nM; as for `Cc1c(C)n(Cc2ccc3ccccc3c2)c2c(OCc3ccc(F)cc3)ccnc12` [Example 37, 7-(4-fluorobenzyloxy)-2,3-dimethyl-1-(naphthalen-2-ylmethyl)-1H-pyrrolo[3,2-b]pyridine hydrochloride], 1260 nM.
As for `CCOc1ccccc1COc1ccnc2c(C)c(C)n(Cc3cccc(OC)c3)c12` [Example 177, 7-(2-ethoxybenzyloxy)-1-(3-methoxybenzyl)-2,3-dimethyl-1H-pyrrolo[3,2-b]pyridine hydrochloride], the figure is 290 nM.
As for `Cc1ccc(Cn2c(C)c(C)c3nccc(OCc4ccc(Br)cc4)c32)cc1` [Example 224, 7-(4-bromobenzyloxy)-2,3-dimethyl-1-(4-methylbenzyl)-1H-pyrrolo[3,2-b]pyridine hydrochloride], the figure is 120 nM; as for `Cc1c(C)n(Cc2ccccc2F)c2c(OCc3ccc(Br)cc3)ccnc12` [Example 225, 7-(4-bromobenzyloxy)-1-(2-fluorobenzyl)-2,3-dimethyl-1H-pyrrolo[3,2-b]pyridine hydrochloride], 620 nM; as for `Cc1c(C)n(CC2CCC2)c2c(OCc3ccc(Br)cc3)ccnc12` [Example 227, 7-(4-bromobenzyloxy)-1-cyclobutylmethyl-2,3-dimethyl-1H-pyrrolo[3,2-b]pyridine hydrochloride], 90 nM.
For `Cc1c(C)n(Cc2ccccc2F)c2c(OCc3ccc4c(c3)OCO4)ccnc12` [Example 101, 7-(benzo[1,3]dioxol-5-ylmethoxy)-1-(2-fluorobenzyl)-2,3-dimethyl-1H-pyrrolo[3,2-b]pyridine hydrochloride], 1010 nM corresponded to half-maximal inhibition (IC50).
On to `COc1cccc(Cn2c(C)c(C)c3nccc(OCc4ccc(C(F)(F)F)cc4)c32)c1` [Example 201, 1-(3-methoxybenzyl)-2,3-dimethyl-7-(4-trifluoromethylbenzyloxy)-1H-pyrrolo[3,2-b]pyridine hydrochloride], for which half-maximal inhibition (IC50) required 680 nM.
For `COCCn1c(C)c(C)c2nccc(OCc3ccc(F)cc3)c21` [Example 127, 7-(4-fluorobenzyloxy)-1-(2-methoxyethyl)-2,3-dimethyl-1H-pyrrolo[3,2-b]pyridine sulfate], it took 40 nM to reach half-maximal inhibition (IC50). Against the preceding compound, the IC50 is about 17-fold lower.
The value for `CC(C)=CCn1c(C)c(C)c2nccc(OCc3ccc(Cl)cc3)c21` [Example 84, 7-(4-chlorobenzyloxy)-2,3-dimethyl-1-(3-methylbut-2-enyl)-1H-pyrrolo[3,2-b]pyridine hydrochloride] was 390 nM.
The value for `COCn1c(C)c(C)c2nccc(OCc3ccc(Cl)cc3)c21` [Example 74, 7-(4-chlorobenzyloxy)-1-methoxymethyl-2,3-dimethyl-1H-pyrrolo[3,2-b]pyridine hydrochloride] was 1080 nM; that for `Cc1c(C)n(CC2OCCO2)c2c(OCc3ccc(Cl)cc3)ccnc12` [Example 87, 7-(4-chlorobenzyloxy)-1-(1,3-dioxolan-2-ylmethyl)-2,3-dimethyl-1H-pyrrolo[3,2-b]pyridine hydrochloride] was 160 nM.
The value for `CCOc1ccccc1COc1ccnc2c(C)c(C)n(CC3CC3)c12` [Example 161, 1-cyclopropylmethyl-7-(2-ethoxybenzyloxy)-2,3-dimethyl-1H-pyrrolo[3,2-b]pyridine hydrochloride] was 580 nM; that for `CCn1c(C)c(C)c2nccc(OCc3cccc(C)c3)c21` [Example 145, 1-ethyl-2,3-dimethyl-7-(3-methylbenzyloxy)-1H-pyrrolo[3,2-b]pyridine hydrochloride] was 530 nM.
`Cc1c(C)n(Cc2ccncc2)c2c(OCc3ccc(Cl)cc3)ccnc12` [Example 80, 7-(4-chlorobenzyloxy)-2,3-dimethyl-1-(pyridin-4-ylmethyl)-1H-pyrrolo[3,2-b]pyridine hydrochloride] yielded an IC50 of 2870 nM.
As for `COc1cccc(Cn2c(C)c(C)c3nccc(OCc4ccc5c(c4)OCO5)c32)c1` [Example 119, 7-(benzo[1,3]dioxol-5-ylmethoxy)-1-(3-methoxybenzyl)-2,3-dimethyl-1H-pyrrolo[3,2-b]pyridine hydrochloride], the figure is 230 nM; as for `Cc1ccc(Cn2c(C)c(C)c3nccc(OCc4ccc5c(c4)OCO5)c32)cc1` [Example 114, 7-(benzo[1,3]dioxol-5-ylmethoxy)-1-(4-methylbenzyl)-2,3-dimethyl-1H-pyrrolo[3,2-b]pyridine hydrochloride], 70 nM.
The value for `C=CCn1c(C)c(C)c2nccc(OCc3cccc(C)c3)c21` [Example 155, 1-allyl-2,3-dimethyl-7-(3-methylbenzyloxy)-1H-pyrrolo[3,2-b]pyridine hydrochloride] was 570 nM.
As for `Cc1cccc(COc2ccnc3c(C)c(C)n(CC4CC4)c23)c1` [Example 154, 1-cyclopropylmethyl-2,3-dimethyl-7-(3-methylbenzyloxy)-1H-pyrrolo[3,2-b]pyridine hydrochloride], the figure is 240 nM.
Turning to `C=CCn1c(C)c(C)c2nccc(OCc3ccc(Br)cc3)c21` [Example 220, 1-allyl-7-(4-bromobenzyloxy)-2,3-dimethyl-1H-pyrrolo[3,2-b]pyridine hydrochloride], the IC50 came out at 50 nM.
The value for “1-(3-methylbuten-2-yl)-7-(1,2,3,4-tetrahydroisoquinolin-2-yl)-2,3-dimethyl-1H-pyrrolo[3,2-b]pyridine hydrochloride [Example 16]” was 190 nM; that for `COCCn1c(C)c(C)c2nccc(OCc3ccc(F)cc3)c21` [Example 124, 7-(4-fluorobenzyloxy)-1-(2-methoxyethyl)-2,3-dimethyl-1H-pyrrolo[3,2-b]pyridine benzenesulfonate] was 50 nM.
The value for `Cc1c(C)n(Cc2ccc(Cl)cc2)c2c(N3CCc4ccccc4C3)ccnc12` [Example 1, 1-(4-chlorobenzyl)-7-(1,2,3,4-tetrahydroisoquinolin-2-yl)-2,3-dimethyl-1H-pyrrolo[3,2-b]pyridine hydrochloride] was 650 nM; that for `COc1ccc(Cn2c(C)c(C)c3nccc(OCc4ccc(F)cc4)c32)cc1` [Example 58, 7-(4-fluorobenzyloxy)-1-(4-methoxybenzyl)-2,3-dimethyl-1H-pyrrolo[3,2-b]pyridine hydrochloride] was 230 nM; that for `Cc1c(C)n(CC2CC2)c2c(NCc3ccc(F)cc3)ccnc12` [Example 255, N-(1-cyclopropylmethyl-2,3-dimethyl-1H-pyrrolo[3,2-b]pyridin-7-yl)-4-fluorobenzylamine hydrochloride] was 550 nM.
`Cc1c(C)n(Cc2ccccc2)c2c(OCc3ccc(Br)cc3)ccnc12` [Example 219, 1-benzyl-7-(4-bromobenzyloxy)-2,3-dimethyl-1H-pyrrolo[3,2-b]pyridine hydrochloride] yielded an IC50 of 60 nM.
The value for `Cc1cccc(Cn2c(C)c(C)c3nccc(N4CCc5ccccc5C4)c32)c1` [Example 12, 1-(3-methylbenzyl)-7-(1,2,3,4-tetrahydroisoquinolin-2-yl)-2,3-dimethyl-1H-pyrrolo[3,2-b]pyridine hydrochloride] was 970 nM.
As for `Cc1c(C)n(Cc2cccc(F)c2)c2c(OCc3ccc4c(c3)OCO4)ccnc12` [Example 116, 7-(benzo[1,3]dioxol-5-ylmethoxy)-1-(3-fluorobenzyl)-2,3-dimethyl-1H-pyrrolo[3,2-b]pyridine hydrochloride], the figure is 150 nM; as for `COC(=O)c1ccc(Cn2c(C)c(C)c3nccc(OCc4ccc(F)cc4)c32)cc1` [Example 35, 4-[7-(4-fluorobenzyloxy)-2,3-dimethyl-pyrrolo[3,2-b]pyridin-1-ylmethyl]-benzoic acid methyl ester hydrochloride], 1090 nM.
The value for `COCCn1c(C)c(C)c2nccc(OCc3ccc(F)cc3)c21` [Example 122, 7-(4-fluorobenzyloxy)-1-(2-methoxyethyl)-2,3-dimethyl-1H-pyrrolo[3,2-b]pyridine] was 20 nM.

The values above are taken from patent US7642269B2, “Pyrrolo[3,2-B]pyridine derivatives and processes for the preparation thereof” (Yuhan Corporation, priority 2005, dated 2010).
